Test results from ChEMBL document CHEMBL2375353, “Efficient induction of apoptosis in HeLa cells by a novel cationic porphycene photosensitizer” (Eur J Med Chem, 2013).
The source made the active and inactive calls. No cut-off for these calls is given here.

Key:
HeLa [1] = experiment: Induction of apoptosis in human HeLa cells assessed as volume reduction at 0.5 uM incubated for 18 hrs prior to red light irradiation measured after 3 hrs by neutral red staining; type: functional, cell-based
HeLa [2] = experiment: Induction of ROS generation in human HeLa cells assessed as cell survival at 0.5 uM incubated for 18 hrs prior to red light irradiation measured after 24 hrs by MTT assay; type: functional; conditions: light or radiation study, read-out: Activity
HeLa [3] = experiment: Induction of ROS generation in human HeLa cells assessed as cell survival at 0.5 uM incubated for 18 hrs followed by NaN3 addition 2 hrs prior to red light irradiation measured after 24 hrs by MTT assay; type: functional; conditions: light or radiation study, read-out: Activity
HeLa [4] = experiment: Induction of ROS generation in human HeLa cells assessed as singlet oxygen luminescence signal at 5 uM after 18 hrs; type: functional, cell-based
HeLa [5] = experiment: Induction of apoptosis in human HeLa cells assessed as trypsin-mediated cell detachment at 0.5 to 0.75 uM incubated for 18 hrs prior to red light irradiation by hemocytometer; type: functional, cell-based
HeLa [6] = experiment: Induction of apoptosis in human HeLa cells assessed as trypsin-mediated cell detachment incubated for 18 hrs prior to red light irradiation measured after 24 hrs by hemocytometer; type: functional, cell-based
HeLa [7] = experiment: Induction of apoptosis in human HeLa cells incubated for 18 hrs prior to red light irradiation measured after 24 hrs by trypan blue exclusion assay; type: functional, cell-based
HeLa [8] = experiment: Induction of apoptosis in human HeLa cells incubated for 18 hrs prior to red light irradiation measured after 3 hrs by trypan blue exclusion assay; type: functional, cell-based
HeLa [9] = experiment: Phototoxicity against human HeLa cells at 0.5 uM incubated for 18 hrs prior to red light irradiation measured after 3 to 24 hrs by trypan blue exclusion assay; type: functional, cell-based
HeLa [10] = experiment: Phototoxicity against human HeLa cells at 0.75 uM incubated for 18 hrs prior to red light irradiation measured after 3 to 24 hrs by trypan blue exclusion assay; type: functional, cell-based
HeLa [11] = experiment: Phototoxicity against human HeLa cells at 0.75 uM incubated for 18 hrs prior to 3.6 J/cm'2 red light irradiation by MTT assay; type: functional, cell-based
HeLa [12] = experiment: Phototoxicity against human HeLa cells assessed as cell viability at > 0.5 uM incubated for 18 hrs prior to 3.6 J/cm'2 red light irradiation by MTT assay; type: functional
HeLa [13] = experiment: Phototoxicity against human HeLa cells at 1 uM incubated for 18 hrs prior to 2.4 J/cm'2 red light irradiation by MTT assay; type: functional
HeLa [14] = experiment: Phototoxicity against human HeLa cells at 1 uM incubated for 18 hrs prior to 1.2 J/cm'2 red light irradiation by MTT assay; type: functional, cell-based
[15] = Cytotoxicity against human HeLa cells assessed as cell viability after 18 hrs by MTT assay in presence of 10 % FCS; type: cell-based; conditions: read-out: Activity
HeLa [16] = experiment: Darktoxicity against human HeLa cells at 1 uM after 18 hrs by MTT assay; type: cell-based
[17] = Cytotoxicity against human HeLa cells assessed as cell viability after 18 hrs by MTT assay in presence of 1 % FCS; type: cell-based; conditions: read-out: Activity
HeLa [18] = experiment: Darktoxicity against human HeLa cells at 0.75 uM after 18 hrs by MTT assay; type: cell-based
[19] = Darktoxicity against human HeLa cells assessed as cell survival at > 0.5 microM after 18 hrs by MTT assay; type: cell-based; conditions: read-out: Activity
HeLa [20] = experiment: Drug uptake in human HeLa cells assessed as localization to lysosome at 0.5 uM after 18 hrs by prior to UV irradiation by fluorescence microscopy; type: ADME, cell-based
HeLa [21] = experiment: Drug uptake in human HeLa cells at 0.75 uM after 18 hrs by fluorescence microscopy; type: ADME, cell-based
HeLa [22] = experiment: Drug uptake in human HeLa cells assessed as perinuclear localization at 0.5 uM incubated for 18 hrs prior to UV irradiation by fluorescence microscopy; type: ADME, cell-based
HeLa [23] = experiment: Ratio of drug uptake in human HeLa cells at 0.5 uM after 18 hrs to drug uptake in human HeLa cells at 0.5 uM after 1 hr; type: ADME, cell-based
HeLa [24] = experiment: Drug uptake in human HeLa cells at 0.5 uM after 18 hrs by flow cytometry; type: ADME, cell-based
HeLa [25] = experiment: Drug uptake in human HeLa cells at 0.5 uM by flow cytometry; type: ADME, cell-based; conditions: TDE = time-dependent effect
HeLa [26] = experiment: Induction of ROS generation in human HeLa cells assessed as singlet oxygen luminescence signal at 5 uM after 18 hrs in presence of sodium azide; type: functional, cell-based
HeLa [27] = experiment: Induction of apoptosis in human HeLa cells assessed as changes in microtubules and actin microfilament alteration at 0.75 to 0.5 uM after 18 hrs by immunostaining assay; type: cell-based
HeLa [28] = experiment: Induction of apoptosis in human HeLa cells assessed as microtubule alteration at 0.75 to 0.5 uM after 18 hrs by […]; type: cell-based
HeLa [29] = experiment: Induction of apoptosis in human HeLa cells assessed as cytochrome c relocation at 0.75 to 0.5 uM after 18 hrs by immunofluorescence method; type: cell-based
HeLa [30] = experiment: Induction of apoptosis in human HeLa cells at 0.75 to 0.5 uM after 18 hrs by Hoechst-33258 staining; type: cell-based
HeLa [31] = experiment: Induction of apoptosis in human HeLa cells at 0.75 to 0.5 uM after 18 hrs by neutral red staining; type: cell-based
HeLa [32] = experiment: Induction of apoptosis in human HeLa cells assessed as relocalization of proapoptotic Bax protein within mitochondria at 0.75 to 0.5 uM after 18 hrs by indirect immunofluorescence; type: cell-based

COCc1ccc(C2=Cc3nc2ccc2[nH]c(cc2-c2ccc(C[n+]4ccccc4)cc2)c2nc(ccc4[nH]c3cc4-c3ccc(C[n+]4ccccc4)cc3)C(c3ccc(C[n+]4ccccc4)cc3)=C2)cc1.[Br-].[Br-].[Br-]
Activity (HeLa [1]): Active | viability at 0.5 µM (HeLa [2]): 5.2% | viability at 0.5 µM (HeLa [3]): 72% | Activity (HeLa [4]): Active | Activity (HeLa [5]): Active | Activity (HeLa [6]): Dose-dependent effect | Activity (HeLa [7]): Active | Activity (HeLa [8]): Active | Activity (HeLa [9]): Active | Activity (HeLa [10]): Active | Activity (HeLa [11]): Active | Activity (HeLa [12]): <10% | Activity (HeLa [13]): >50% | Activity (HeLa [14]): Active | viability at 18 h [15]: 100% | Activity (HeLa [16]): Toxic | viability at 18 h [17]: 98.6% | Activity (HeLa [18]): Toxic | viability at 18 h [19]: > 90% | Drug uptake (HeLa [20]): Active | Drug uptake (HeLa [21]): Active | Drug uptake (HeLa [22]): Active | Ratio (HeLa [23]): 3 | Drug uptake (HeLa [24]): Active | Drug uptake (HeLa [25]): tde | Activity (HeLa [26]): inactive | Activity (HeLa [27]): Non-toxic | Activity (HeLa [28]): Non-toxic | Activity (HeLa [29]): Non-toxic | Activity (HeLa [30]): Non-toxic | Activity (HeLa [31]): Non-toxic | Activity (HeLa [32]): Non-toxic
